Legend:
[1] = tested on: collagen-induced arthritis; details: for animals with weight gain at end of study / diarrhea over the 21-day period / increase in body weight, day 21 vs day 0: rat, in vivo; for increase in body weight, day 21 vs day 0: po; for control of hind paw volume: reference treatments vs CIA+vehicle (group 2)
Experimental: (§1) The emulsion was cooled in an ice water bath during the formulation. The final concentration of collagen was 1 mg/mL. The emulsion is prepared fresh immediately prior to injection.
as §1
Experimental groups for the study are outlined in Table 5A. […] Animals in group one received no immunization.
IHC markers for staining were selected after evaluating clinical and histopathological scores for animals. After the skin was removed, the right hind limb was snap frozen in liquid nitrogen and RNA and protein analysis was performed.
Blood samples were collected from animals in groups 1-7 via cardiac puncture following euthanasia on Day 21. […] Serum was divided into two separate tubes and stored at −75±15° C. One tube was used to analyze IgG1, and the other tube was reserved for additional analyses.
H&E-stained slides of designated tissues from animals were transferred to an independent pathologist for microscopic evaluation (SPFBio). Samples were assigned the histologic grades based on the severity of change from tissue where CIA was not induced. Histology grades assigned were as follows: grade 1 (minimal change), grade 2 (mild change), grade 3 (moderate change), grade 4 (marked change), and grade 5 (severe change). A grade may be assigned for each indicator of disease severity: inflammation, mixed cell; granulation tissue; increased bone, periosteum; increased eroded surface, bone and erosion/ulcer, cartilaginous. […] Moderate inflammation was also associated with increased edema fluid, fibrin, and cellular debris. Marked mixed cell inflammation was characterized by dense, widespread accumulations of neutrophils and macrophages with lesser number of lymphocytes within one or more joint spaces, synovium and periarticular soft tissues. Marked inflammation was also associated with abundant edema fluid, fibrin, and cellular debris.
Marked granulation tissue (pannus) was associated with inflammation and was characterized by widespread fibrovascular connective tissue that expanded/replaced the periarticular soft tissues of one or more joints, extended into/expanded joint spaces, was contiguous with areas of erosion/ulcer in articular cartilage and/or increased eroded surface of bone, and variably extended along the diaphysis.
Marked increased periosteal bone (periosteal bone formation) was characterized by extensive areas of increased bone matrix and numerous prominent osteoblasts lining trabecular surfaces along the metaphysis and/or diaphysis of one or more bones.

[2] = tested on: collagen-induced arthritis; assay: CIA model: histopathologic analysis of hind limbs; type: in vivo, Lewis rats; details: for Pathologic observations after microscopic evaluation: Group 3 (CIA + Dexamethasone); for Erosion/Ulcer, cartilaginous, Marked (number of animals) / Erosion/Ulcer, cartilaginous, Mild (number of animals) / Erosion/Ulcer, cartilaginous, Minimal (number of animals) / Erosion/Ulcer, cartilaginous, Moderate (number of animals) / Granulation tissue, Marked (number of animals) / Granulation tissue, Mild (number of animals) / Granulation tissue, Minimal (number of animals) / Granulation tissue, Moderate (number of animals) / Increased bone, periosteum, Marked (number of animals) / Increased bone, periosteum, Mild (number of animals) / Increased bone, periosteum, Minimal (number of animals) / Increased bone, periosteum, Moderate (number of animals) / Increased eroded surface, bone, Marked (number of animals) / Increased eroded surface, bone, Mild (number of animals) / Increased eroded surface, bone, Minimal (number of animals) / Increased eroded surface, bone, Moderate (number of animals) / Mixed cell inflammation, Marked (number of animals) / Mixed cell inflammation, Mild (number of animals) / Mixed cell inflammation, Minimal (number of animals) / Mixed cell inflammation, Moderate (number of animals) / No Visible Lesions (number of animals): hind limbs, CIA induced, 8 animals examined, comparator, dose not given
Source text: Mean histopathologic scores for tissue samples from animals in Groups 1-6 are depicted in FIG. 22A, and day 21 histology scores for all animals are illustrated in FIG. 22B.

| Structure (SMILES) | animals with weight gain at end of study [1] | diarrhea over the 21-day period [1] | increase in body weight, day 21 vs day 0 [1] [%] | control of hind paw volume [1] | Erosion/Ulcer, cartilaginous, Marked (number of animals) [2] | Erosion/Ulcer, cartilaginous, Mild (number of animals) [2] | Erosion/Ulcer, cartilaginous, Minimal (number of animals) [2] | Erosion/Ulcer, cartilaginous, Moderate (number of animals) [2] | Granulation tissue, Marked (number of animals) [2] | Granulation tissue, Mild (number of animals) [2] | Granulation tissue, Minimal (number of animals) [2] | Granulation tissue, Moderate (number of animals) [2] | Increased bone, periosteum, Marked (number of animals) [2] | Increased bone, periosteum, Mild (number of animals) [2] | Increased bone, periosteum, Minimal (number of animals) [2] | Increased bone, periosteum, Moderate (number of animals) [2] | Increased eroded surface, bone, Marked (number of animals) [2] | Increased eroded surface, bone, Mild (number of animals) [2] | Increased eroded surface, bone, Minimal (number of animals) [2] | Increased eroded surface, bone, Moderate (number of animals) [2] | other results |
| --- | --- | --- | --- | --- | --- | --- | --- | --- | --- | --- | --- | --- | --- | --- | --- | --- | --- | --- | --- | --- | --- |
| C[C@@H]1C[C@H]2[C@@H]3CCC4=CC(=O)C=C[C@]4(C)[C@@]3(F)[C@@H](O)C[C@]2(C)[C@@]1(O)C(=O)CO [Dexamethasone, dexamethasone] | 4/8 | did not have diarrhea | 1.3 | effective at controlling paw volume | 0 | 0 | 0 | 0 | 0 | 0 | 0 | 0 | 0 | 0 | 0 | 0 | 0 | 0 | 0 | 0 | average overall clinical score at plateau ([1]; reference treatments (groups 3 and 4), around day 18): never exhibited any signs of disease; Pathologic observations after microscopic evaluation [2]: no histopathological observations noted; Pathologic observations after microscopic evaluation ([2]; listed as dexamethasone): No pathologic observations; Mixed cell inflammation, Marked (number of animals) [2]: 0; Mixed cell inflammation, Mild (number of animals) [2]: 0; Mixed cell inflammation, Minimal (number of animals) [2]: 0; Mixed cell inflammation, Moderate (number of animals) [2]: 0; No Visible Lesions (number of animals) [2]: 8 |
| CNC(=O)c1cc(C(=O)NC2CC2)cn(Cc2ccccc2)c1=O [GSK620] | 4/8 | did not have diarrhea | 0.8 | failed to prevent an increase in paw volume | 0 | 6 | 0 | 2 | 0 | 4 | 0 | 4 | 0 | 6 | 0 | 2 | 0 | 4 | 1 | 3 | animals exhibiting disease ([1]; group 4, day 18): all animals; Erosion/ulcer in articular cartilage, grade ([2]; Group 4 (CIA + GSK620)): mild and mild to moderate; Granulation tissue (pannus), grade ([2]; Group 4 (CIA + GSK620)): mild and mild to moderate; Increased eroded surface of bone (bone resorption), grade ([2]; Group 4 (CIA + GSK620)): mild and minimal to moderate; Increased periosteal bone (periosteal bone formation), grade ([2]; Group 4 (CIA + GSK620)): mild and mild to moderate; Mixed cell inflammation, grade ([2]; Group 4 (CIA + GSK620)): moderate; Mixed cell inflammation, Marked (number of animals) [2]: 0; Mixed cell inflammation, Mild (number of animals) [2]: 0; Mixed cell inflammation, Minimal (number of animals) [2]: 0; Mixed cell inflammation, Moderate (number of animals) [2]: 8; No Visible Lesions (number of animals) [2]: 0 |

Source: patent US20260217701A1, “SELECTIVE BET INHIBITORS AND USES THEREOF” (Tay Therapeutics Limited, priority 2022, published 2026)
